In ChEMBL document CHEMBL4706736, “Modulating Androgen Receptor in the Therapeutic Intervention for Prostate Cancer and Kennedy's Disease” (2021):
Where a SMILES comes first, the peptide text is derived from it. [ ]: non-standard residue; d: D form. The star is where a group is joined. X1 = O=C(COc1c(-c2csc(N3CCOCC3)n2)ccc(F)c1F)NCCCCCCN*; X4 = O=C(COc1c(-c2csc(N3CCOCC3)n2)ccc(F)c1F)NCCCCN*; X2 = Fc1ccc(-c2csc(N3CCOCC3)n2)c(OCCOCCOCCN*)c1F; X3 = O=C(NCCCCCCN*)c1cccc2sc(N3CCOCC3)nc12; Dip = N[C@H](C(=O)O)C(c1ccccc1)c1ccccc1; Chg = N[C@H](C(=O)O)C1CCCCC1; NMeA = CN[C@@H](C)C(=O)O

Test system: CWR22R
Assay: Antiproliferative activity against human 22Rv1 cells assessed as reduction in cell viability at 10 uM incubated for 48 hrs by automated cell counting analysis relative to control
Type: functional

Row | Compound | inhibition at 10 µM [%]
1 | CN[C@@H](C)C(=O)N[C@H](C(=O)N1Cc2cc(OCCOCCOc3c(-c4csc(N5CCOCC5)n4)ccc(F)c3F)ccc2C[C@H]1C(=O)N[C@@H]1CCCc2ccccc21)C(C)(C)C | > 50
2 | COc1cc(C(=O)NCCOCCOCCOc2c(-c3csc(N4CCOCC4)n3)ccc(F)c2F)ccc1NC(=O)[C@@H]1N[C@@H](CC(C)(C)C)[C@](C#N)(c2ccc(Cl)cc2F)[C@H]1c1cccc(Cl)c1F | > 50
3 | CN[C@@H](C)C(=O)N[C@H](C(=O)N1Cc2cc(OCCOCCOCCOc3c(-c4csc(N5CCOCC5)n4)ccc(F)c3F)ccc2C[C@H]1C(=O)N[C@@H]1CCCc2ccccc21)C(C)(C)C | > 50
4 | CN[C@@H](C)C(=O)N[C@H](C(=O)N1CCC[C@H]1C(=O)N[C@H](C(=O)NCCCCCCNC(=O)c1cccc2sc(N3CCOCC3)nc12)C(c1ccccc1)c1ccccc1)C1CCCCC1 (H-[NMeA][Chg]P[Dip]-X3) | > 50
5 | CN[C@@H](C)C(=O)N[C@H](C(=O)N1CCC[C@H]1C(=O)N[C@H](C(=O)NCCCCCCNC(=O)COc1c(-c2csc(N3CCOCC3)n2)ccc(F)c1F)C(c1ccccc1)c1ccccc1)C1CCCCC1 (H-[NMeA][Chg]P[Dip]-X1) | > 50
6 | CN[C@@H](C)C(=O)N[C@H](C(=O)N1CCC[C@H]1C(=O)N[C@H](C(=O)NCCOCCOCCOc1c(-c2csc(N3CCOCC3)n2)ccc(F)c1F)C(c1ccccc1)c1ccccc1)C1CCCCC1 (H-[NMeA][Chg]P[Dip]-X2) | > 50
7 | COc1cc(C(=O)NCCCCNC(=O)COc2c(-c3csc(N4CCOCC4)n3)ccc(F)c2F)ccc1NC(=O)[C@@H]1N[C@@H](CC(C)(C)C)[C@](C#N)(c2ccc(Cl)cc2F)[C@H]1c1cccc(Cl)c1F | > 50
8 | CN[C@@H](C)C(=O)N[C@H](C(=O)N1CCC[C@H]1C(=O)N[C@H](C(=O)NCCCCNC(=O)COc1c(-c2csc(N3CCOCC3)n2)ccc(F)c1F)C(c1ccccc1)c1ccccc1)C1CCCCC1 (H-[NMeA][Chg]P[Dip]-X4) | > 50
9 | NCCCCCCCCCCNc1cccc2c1C(=O)N(C1CCC(=O)NC1=O)C2=O (stereo unspecified) | < 50
10 | O=C1CCC(N2C(=O)c3cccc(NCCCCCCNC(=O)c4cn(-c5csc(N6CCOCC6)n5)cn4)c3C2=O)C(=O)N1 (stereo unspecified) | 0
11 | Cc1ncsc1-c1ccc([C@H](C)NC(=O)[C@@H]2C[C@@H](O)CN2C(=O)[C@@H](NC(=O)CCCCNC(=O)COc2c(-c3csc(N4CCOCC4)n3)ccc(F)c2F)C(C)(C)C)cc1 | < 50
